This assay deals with T1, 17-beta-hydroxysteroid dehydrogenase 13 (Homo sapiens, UniProt Q7Z5P4).
T1 sequence (Q7Z5P4 whole entry): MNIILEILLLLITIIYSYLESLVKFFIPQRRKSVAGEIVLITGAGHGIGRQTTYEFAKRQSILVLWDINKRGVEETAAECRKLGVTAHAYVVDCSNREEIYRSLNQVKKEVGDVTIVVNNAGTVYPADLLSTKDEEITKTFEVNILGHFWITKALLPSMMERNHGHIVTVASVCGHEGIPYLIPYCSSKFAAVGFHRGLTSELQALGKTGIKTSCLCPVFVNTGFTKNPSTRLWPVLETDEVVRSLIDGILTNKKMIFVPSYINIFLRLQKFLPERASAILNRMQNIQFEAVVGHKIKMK
The assay is described as follows: HSD17B13 rapid-fire mass spectrometry assay (RF/MS assay). The source says: Recombinant human HSD17B13 was expressed and purified from sf9 cells at Charles River Labs (Saffron Walden, UK). Leukotriene B4 (Catalog #71160-24-2) and 12-oxoleukotriene B4 (Catalog #20140) were purchased from Cayman Chemicals (Ann Arbor, Michigan.). NAD+ (Catalog #N8285), BSA (Catalog #A7030), DMSO (Catalog #D2650), and Tween-20 (Catalog #11332465001) were purchased from Sigma (St. Louis, MO). Formic acid (Catalog #28905) was from ThermoFisher Scientific and 384 deep well PP microplates (Catalog #784261) were from Greiner Bio-One. In a typical IC50 assay performed in a 384w PP microplate, test compounds (0-100 μM) were incubated with HSD17B13 (80 nM), LTB4 (10 μM), and NAD+ (0.5 mM) in 10 μL assay buffer (20 mM Tris (pH 7.5), BSA (0.005%), and Tween-20 (0.01%)) at RT for 3 h. The assays were quenched by adding 20 μL of 0.15% aqueous formic acid and the plates were frozen at −80° C. RF/MS analysis was performed at PureHoney Technologies (Billerica, MA) on a RapidFire RF300 system (Agilent Technologies, Inc.) coupled to an API 4000 triple quadrupole mass spectrometer (Sciex) equipped with Agilent RapidFire cartridge type A (C4). The mobile phase was 0.09% formic acid and 0.01% trifluoracetic acid in water (Buffer A) and 0.09% formic acid and 0.01% trifluoracetic acid in 80% aqueous acetonitrile (Buffer B). The RapidFire method conditions were the following: 250 ms aspirate, 3000 ms load/desalt, 4000 ms elute, and 500 ms re-equilibrate. RF-MS/MS was performed in negative polarity (−4500 V), the source temperature was 650° C., and gas 1 and gas 2 settings for nitrogen were set to 50. The curtain gas and collision gas were also nitrogen and were set to 20 and 12, respectively. Leukotriene B4 (335.3) and 12-oxoLeukotriene B4 (333.3) SRM transitions were optimized with Discovery Quant software and extracted ion counts for these analytes were determined. Data Analysis. HSD17B13 enzyme activity was measured as percent conversion of extracted ion counts and normalized to high and low controls to determine percent residual activity at various concentrations of test compounds. […]

SMILES strings stand for the structures.

This passage reports IC50 results from BindingDB's records for patent US12384753 (Enanta Pharmaceuticals, 2025).

Take `COc1cc(C(=O)O)ccc1NS(=O)(=O)c1coc(-c2ccc(F)cc2)n1` [US12384753, Example 417]: the 50% inhibitory concentration (IC50) was under 100 nM.

Turning to `COc1cc(C(=O)O)ccc1NS(=O)(=O)c1coc(-c2ccc(Cl)cc2)n1` [US12384753, Example 418], the IC50 is under 100 nM.

`COc1ccc(C#Cc2nc(S(=O)(=O)Nc3ccc(C(=O)O)cc3OC)cs2)c(C2CC2)c1` [US12384753, Example 396] returned an IC50 of under 100 nM.

In general, IC50 refers to the concentration that inhibits the measured activity by half. A low value points to inhibition by little substance.
